Data taken from patent US20220226348A1, “METHOD AND COMPOSITION FOR TREATMENT OF SKIN DISEASES ASSOCIATED WITH ACCELERATED CORNEODESMOSOMES DEGRADATION OR WEAKER CELL-CELL ADHESION” (ICHILOV TECH LTD, priority 2019, published 2022).

Columns and labels:
corneodesmosin = assay: Corneodesmosin protein expression by immunoblotting, normalized to β-actin; format: cell-based; conditions: human primary keratinocytes, immunoblot
Description: Using a high throughput screening of small molecule libraries, utilizing green fluorescent protein (GFP) base reporter system and western blot analysis for validation of the results, it has now been found, in accordance with the present invention, that betulinic acid (which is already used as topical treatment on human skin, and capable of penetrating into the skin and be active in the epidermis while showing excellent safty profile) is capable of boosting corneodesmosin biosynthesis, and when administered to keratinocytes, it increases corneodesmosin expression by more than 3-fold (FIGS. 1-2), and may thus be used as an inducer of corneodesmosin expression in patients suffering from skin diseases or disorders associated with accelerated corneodesmosomes degradation and/or weaker cell-cell adhesion.
Corneodesmosin protein levels were quantified and normalized to β-actin protein levels and presented as corneodesmosin fold expression relative to normal keratinocytes treated with DMSO. […] The other compounds shown in the figure are 5-aminolevulinic acid hydrochloride (5-ALA; #1), piperlongumine (#2), thiostrepton (#3), obatoclax mesylate (GX15-070; #5), BI 2536 (CAS No.: 755038-02-9; #6), PHA-665752 (CAS No.: 477575-56-7 (anhydrous; #7), YH239-EE (CAS No.: 1364488-67-4; #8), PF-562271 (CAS No.: 717907-75-0; #9), and BI-D1870 (CAS No.: 501437-28-1; #10).

CDSN = CDSN expression at the mRNA level in keratinocytes; format: cell-based

C=C(C)[C@@H]1CC[C@]2(C(=O)O)CC[C@]3(C)[C@H](CC[C@@H]4[C@@]5(C)CC[C@H](O)C(C)(C)[C@@H]5CC[C@]43C)[C@@H]12 [betulinic acid]
corneodesmosin fold expression relative to normal keratinocytes treated with DMSO (corneodesmosin): more than 3 fold | CDSN expression at the mRNA level relative to DMSO-treated normal keratinocytes (CDSN): 2 fold
